Measured values as given in paper PMC9841532, “Exploring the Effect of Halogenation in a Series of Potent and Selective A2B Adenosine Receptor Antagonists” (Journal of Medicinal Chemistry, 2022).

System: human peripheral blood mononuclear cells (PBMCs)
Assay: Proliferation of CFSE-labeled activated PBMCs in the presence of adenosine
Assay type: cell-based
Settings: PBMCs + anti-CD3/CD28 + IL-2 + Ado 0.1 mM + compound 15 μM, 3 days
From the text: To gain evidence supporting the role of the here optimized A2BAR antagonists in the context of cancer immunotherapy, it was decided to evaluate the effect of two representative compounds (16b and 16j) in the proliferative activity of a prototypical immune cell. The human peripheral blood mononuclear cells (PBMCs) were selected for the study; they are critical components of the immune system and are involved in both humoral and cell-mediated immunity. Ado-mediated blockade of PBMC proliferation is well documented and characterized;[51],[52] we therefore investigated whether our A2BAR antagonists (16b and 16j) can reverse the blockade of ADO-mediated proliferation in human PBMCs. PBMCs, isolated from a healthy donor, were labeled with carboxyfluorescein succinimidyl ester (CFSE) and then activated by adding anti-CD3/CD28 antibodies and interleukin 2 (IL-2). CFSE is a cell dye that allows for the determination of cell proliferation, as dividing cells progressively lose fluorescence.
Figure 10 Effect of compounds 16b and 16j on the proliferation of PBMCs stimulated with antiCD3/CD28 + IL-2 in the presence of adenosine (ADO). […] The frequency of proliferating cells (CFSE^dim) as well as their median fluorescence intensities were quantified and ratios calculated against the values of stimulated PBMCs with no further treatment. […]

SMILES	frequency of proliferating cells (CFSEdim) [%]
CC1=C(C(=O)OC(C)C)C(c2ccco2)n2c(nc3cc(F)ccc32)N1 (centres unmarked) [16b]	9.14
CC1=C(C(=O)OC(C)C)C(c2ccco2)n2c(nc3cc(Cl)ccc32)N1 (centres unmarked) [16j]	6.54
